Results published in patent US20010011063A1, “Substituted 2,4-diamino-1,3,5-triazines, processes for their preparation and their use as herbicides and plant growth regulators” (priority 1999, published 2001).

Legend:
Assay type in all cases: in vivo
[1] = test system: Stellaria media, Lolium multiflorum, Amaranthus retroflexus, Sinapis alba, Avena sativa and Settaria viridis; assay: Pre-emergence effect on weeds (greenhouse pot test); conditions: application rate of 1 kg or less of active substance per hectare; visually scored after 3 to 4 weeks by comparison with untreated controls
Description: Seeds or rhizome pieces of mono and dicotyledonous weed plants are placed in sandy loam soil in plastic pots and covered with soil. The compounds according to the invention which are formulated in the form of wettable powders or emulsion concentrates are then applied to the soil cover in the form of aqueous suspensions or emulsions at an application rate of 600 to 800 l of water/ha (converted), in various dosages.

[2] = test system: Sinapis alba, Echinochloa crus-galli, Lolium multiforum, Stellaria media, Cyperus iria, Amaranthus retroflexus, Settaria viridis and Avena sativa; assay: Post-emergence effect on weeds (greenhouse pot test); conditions: application rate of 1 kg or less of active substance per hectare; treated at the three-leaf stage; scored visually after about 3 to 4 weeks vs untreated controls
Description: Seeds or rhizome pieces of mono- and dicotyledonous weeds are placed in sandy loam soil in plastic pots, covered with soil and grown in a greenhouse under good growth conditions. Three weeks after sowing, the test plants are treated at the three-leaf stage. The compounds according to the invention, formulated as wettable powders or emulsion concentrates, are sprayed, at various dosages, onto the green parts of the plants at an application rate of 600 to 800 l of water/ha (converted). After the test plants had remained in the greenhouse for about 3 to 4 weeks under optimum growth conditions, the effect of the preparations is scored visually by comparison with untreated controls. The agents according to the invention also have good herbicidal activity post-emergence against a broad spectrum of economically important weed grasses and broad-leaved weeds.

[3] = test system: Cyperus monti, Echinochloa crus-galli and Sagitaria pygmaea; assay: Action on harmful plants in rice (paddy rice conditions); conditions: poured into the dammed water, visual scoring about three weeks after application; further: test concentration or dose not given here
Description: Transplanted and sown rice and also typical rice weeds (gramineous and broad-leaved) are cultivated in closed plastic pots in a greenhouse to the three-leaf stage (Echinochloa crus-galli 1.5-leaf) under paddy rice conditions (height of water: 2-3 cm). This is followed by treatment with the compounds according to the invention. For this purpose, the formulated active compounds are suspended, dissolved or emulsified in water and applied by pouring them into the dammed water around the test plants in different dosages.

Nc1nc(N[C@@H](CCCc2ccc(Cl)cc2Cl)C2CC2)nc(C(F)(F)F)n1 [Example 3-6]
very good herbicidal activity: herbicidal activity pre-emergence against harmful plants [1] | herbicidal activity post-emergence against harmful plants [2] | herbicidal activity against harmful plants which are typical for rice crops [3]

Cc1nc(N)nc(N[C@@H](CCCc2ccccc2)C2CC2)n1 [Example 3-8]
very good herbicidal activity: herbicidal activity pre-emergence against harmful plants [1] | herbicidal activity post-emergence against harmful plants [2] | herbicidal activity against harmful plants which are typical for rice crops [3]

CCc1nc(N)nc(N[C@@H](CCCc2ccccc2)C2CC2)n1 [Example 3-9]
very good herbicidal activity: herbicidal activity pre-emergence against harmful plants [1] | herbicidal activity post-emergence against harmful plants [2] | herbicidal activity against harmful plants which are typical for rice crops [3]

CC(C)c1nc(N)nc(N[C@@H](CCCc2ccccc2)C2CC2)n1 [Example 3-11]
very good herbicidal activity: herbicidal activity pre-emergence against harmful plants [1] | herbicidal activity post-emergence against harmful plants [2] | herbicidal activity against harmful plants which are typical for rice crops [3]

CC(C)(F)c1nc(N)nc(N[C@@H](CCCc2ccccc2)C2CC2)n1 [Example 3-12]
very good herbicidal activity: herbicidal activity pre-emergence against harmful plants [1] | herbicidal activity post-emergence against harmful plants [2] | herbicidal activity against harmful plants which are typical for rice crops [3]

CC(C)(F)c1nc(N)nc(N[C@@H](CCCc2cccc(Cl)c2)C2CC2)n1 [Example 3-18]
very good herbicidal activity: herbicidal activity pre-emergence against harmful plants [1] | herbicidal activity post-emergence against harmful plants [2] | herbicidal activity against harmful plants which are typical for rice crops [3]

CC(C)c1nc(N)nc(N[C@@H](CCCc2ccccc2)C2CCC2)n1 [Example 3-58]
very good herbicidal activity: herbicidal activity pre-emergence against harmful plants [1] | herbicidal activity post-emergence against harmful plants [2] | herbicidal activity against harmful plants which are typical for rice crops [3]

CC(C)Cc1nc(N)nc(NC(CCCc2ccccc2)C2CCC2)n1 (stereo not drawn) [Example 3-59]
very good herbicidal activity: herbicidal activity pre-emergence against harmful plants [1] | herbicidal activity post-emergence against harmful plants [2] | herbicidal activity against harmful plants which are typical for rice crops [3]

CC(C)(F)c1nc(N)nc(NC(CCCc2ccccc2)C2CCC2)n1 (stereo not drawn) [Example 3-64]
very good herbicidal activity: herbicidal activity pre-emergence against harmful plants [1] | herbicidal activity post-emergence against harmful plants [2] | herbicidal activity against harmful plants which are typical for rice crops [3]

CC(C)c1nc(N)nc(NC(CCCc2cccc(Cl)c2)C2CCC2)n1 (stereo not drawn) [Example 3-67]
very good herbicidal activity: herbicidal activity pre-emergence against harmful plants [1] | herbicidal activity post-emergence against harmful plants [2] | herbicidal activity against harmful plants which are typical for rice crops [3]

CC(C)(F)c1nc(N)nc(NC(CCCc2cccc(Cl)c2)C2CCC2)n1 (stereo not drawn) [Example 3-68]
very good herbicidal activity: herbicidal activity pre-emergence against harmful plants [1] | herbicidal activity post-emergence against harmful plants [2] | herbicidal activity against harmful plants which are typical for rice crops [3]

Cc1cccc(CCCC(Nc2nc(N)nc(C(C)C)n2)C2CCC2)c1 (stereo not drawn) [Example 3-71]
very good herbicidal activity: herbicidal activity pre-emergence against harmful plants [1] | herbicidal activity post-emergence against harmful plants [2] | herbicidal activity against harmful plants which are typical for rice crops [3]

Cc1cccc(CCCC(Nc2nc(N)nc(C(C)(C)F)n2)C2CCC2)c1 (stereo not drawn) [Example 3-72]
very good herbicidal activity: herbicidal activity pre-emergence against harmful plants [1] | herbicidal activity post-emergence against harmful plants [2] | herbicidal activity against harmful plants which are typical for rice crops [3]

COc1cccc(CCCC(Nc2nc(N)nc(C(C)C)n2)C2CCC2)c1 (stereo not drawn) [Example 3-75]
very good herbicidal activity: herbicidal activity pre-emergence against harmful plants [1] | herbicidal activity post-emergence against harmful plants [2] | herbicidal activity against harmful plants which are typical for rice crops [3]

COc1cccc(CCCC(Nc2nc(N)nc(C(C)(C)F)n2)C2CCC2)c1 (stereo not drawn) [Example 3-76]
very good herbicidal activity: herbicidal activity pre-emergence against harmful plants [1] | herbicidal activity post-emergence against harmful plants [2] | herbicidal activity against harmful plants which are typical for rice crops [3]

Nc1nc(NC(CCCc2ccc(Cl)cc2Cl)C2CC2)nc(C(F)(F)F)n1 (stereo not drawn) [Example 4-6]
very good herbicidal activity: herbicidal activity pre-emergence against harmful plants [1] | herbicidal activity post-emergence against harmful plants [2] | herbicidal activity against harmful plants which are typical for rice crops [3]

Cc1nc(N)nc(NC(CCCc2ccccc2)C2CC2)n1 (stereo not drawn) [Example 4-8]
very good herbicidal activity: herbicidal activity pre-emergence against harmful plants [1] | herbicidal activity post-emergence against harmful plants [2] | herbicidal activity against harmful plants which are typical for rice crops [3]

CCc1nc(N)nc(NC(CCCc2ccccc2)C2CC2)n1 (stereo not drawn) [Example 4-9]
very good herbicidal activity: herbicidal activity pre-emergence against harmful plants [1] | herbicidal activity post-emergence against harmful plants [2] | herbicidal activity against harmful plants which are typical for rice crops [3]

CC(C)c1nc(N)nc(NC(CCCc2ccccc2)C2CC2)n1 (stereo not drawn) [Example 4-11]
very good herbicidal activity: herbicidal activity pre-emergence against harmful plants [1] | herbicidal activity post-emergence against harmful plants [2] | herbicidal activity against harmful plants which are typical for rice crops [3]

CC(C)(F)c1nc(N)nc(N[C@H](CCCc2ccccc2)C2CC2)n1 [Example 4-12, 2-Amino-4-(1-fluoro-1-methylethyl)-6-[(1 R)4-phenyl-1-cyclopropylbutylamino]-1,3,5-triazine]
very good herbicidal activity: herbicidal activity pre-emergence against harmful plants [1] | herbicidal activity post-emergence against harmful plants [2] | herbicidal activity against harmful plants which are typical for rice crops [3]

CC(C)(F)c1nc(N)nc(NC(CCCc2cccc(Cl)c2)C2CC2)n1 (stereo not drawn) [Example 4-18]
very good herbicidal activity: herbicidal activity pre-emergence against harmful plants [1] | herbicidal activity post-emergence against harmful plants [2] | herbicidal activity against harmful plants which are typical for rice crops [3]

CC(C)c1nc(N)nc(NC(CCCc2ccccc2)C2CCC2)n1 (stereo not drawn) [Example 4-58]
very good herbicidal activity: herbicidal activity pre-emergence against harmful plants [1] | herbicidal activity post-emergence against harmful plants [2] | herbicidal activity against harmful plants which are typical for rice crops [3]

CC(C)Cc1nc(N)nc(NC(CCCc2ccccc2)C2CCC2)n1 (stereo not drawn) [Example 4-59]
very good herbicidal activity: herbicidal activity pre-emergence against harmful plants [1] | herbicidal activity post-emergence against harmful plants [2] | herbicidal activity against harmful plants which are typical for rice crops [3]

CC(C)(F)c1nc(N)nc(NC(CCCc2ccccc2)C2CCC2)n1 (stereo not drawn) [Example 4-64]
very good herbicidal activity: herbicidal activity pre-emergence against harmful plants [1] | herbicidal activity post-emergence against harmful plants [2] | herbicidal activity against harmful plants which are typical for rice crops [3]

CC(C)c1nc(N)nc(NC(CCCc2cccc(Cl)c2)C2CCC2)n1 (stereo not drawn) [Example 4-67]
very good herbicidal activity: herbicidal activity pre-emergence against harmful plants [1] | herbicidal activity post-emergence against harmful plants [2] | herbicidal activity against harmful plants which are typical for rice crops [3]
